US20070172424A1, “Enabling drug adherence through closed loop monitoring & communication” (priority 2006, published 2007)
Each block holds one molecule with its values, some of them ahead of it.

Key:
[1] = rats, within 24 hours of administration; cited from earlier work
[2] = in vivo
Experimental: The ability to detect the blood concentration of a pain reliever, such as liquid acetaminophen in the blood stream by measuring a tracer is described. The research is carried out by two researchers A & B.
10 ml liquid cough medicine (acetaminophen) 10 ml of 80 proof vodka
Researcher “A” combines the liquid cough medicine together with the vodka in a common flask. “A” stirs until mixed. “A” gives the mixture to the study subject to consume orally. Waits 30 minutes. Subject breathes into breathalyzer, “A” extracts blood sample. “A” repeats both measurements 8 more times at 30 minute intervals. “A” compares alcohol readings with a PK curve for alcohol; compares mass spectrometer analysis of blood for the presence of acetaminophen with a PK curve for acetaminophen.
The standard PK curves for alcohol & acetaminophen are provided to “B”, and he is told the must analyze one reading that was taken 2 hours after ingestion, and determine whether the alcohol reading was within the anticipated range of PK curve. He is given the alcohol breathalyzer result for 2 hours after ingestion.

SMILES: CC(C)=CCCC(C)=CC=O [Citral]
- fraction of the given dose excreted in urine [1]: 50%

SMILES: CC(=O)Nc1ccc(O)cc1 [acetaminophen]
- PK results versus standard PK curve for acetaminophen ([2]; po): fall within range of the standard PK curve

- 2-hour breathalyzer reading versus anticipated range of PK curve [2]: fall within statistical range
SMILES: CCO [alcohol]
- PK results versus standard PK curve for alcohol ([2]; po): fall within range of the standard PK curve
